Reference: US20200009173A1, “TRIAZOLE-CONTAINING MACROLIDES AND OPHTHALMIC USES THEREFOR” (Tetard, Inc., priority 2017, published 2020)
Values after ≈ are worked out from the molar mass of the structure shown. Like-named read-outs stand apart in the source and are kept apart here.

Key:
Streptococcus pneumoniae = test: MIC, Streptococcus pneumoniae (150 strains); assay type: cell-based
Streptococcus pyogenes = test: MIC, Streptococcus pyogenes; assay type: cell-based; details: Streptococcus pyogenes
Haemophilus influenzae = test: MIC, Haemophilus influenzae (100 strains); assay type: cell-based
Legionella pneumophila = test: microbe, parasite or virus in culture; assay type: cell-based
Mycoplasma pneumoniae = test: MIC, Mycoplasma pneumoniae (38 strains); assay type: cell-based
P. Acnes = test: MICs of solithromycin and comparator drugs against P. acnes; assay type: cell-based; details: Cutibacterium acnes; 51 species
Excerpt: EXAMPLE. The formulations described herein show overall higher potency against ocular pathogens than commercial standards. MICs (μg/ml) of Solithromycin and Comparator Drugs against P. Acnes (51 Species)

S. pneumoniae = test: MICs of solithromycin and comparator drugs, S. pneumoniae (30 species); assay type: cell-based
Excerpt: (§1) EXAMPLE. The formulations described herein show overall higher potency against ocular pathogens than commercial standards.
(§2) MICs (μg/ml) of Solithromycin and Comparator Drugs against Bacterial Species

H. influenzae = test: MICs of solithromycin and comparator drugs, H. influenzae (30 species); assay type: cell-based
Excerpt: as §1, §2

MSSA = test: MICs of solithromycin and comparator drugs, MSSA (31 species); assay type: cell-based
Excerpt: as §1, §2

MSRA = test: MICs of solithromycin and comparator drugs, MSRA (30 species); assay type: cell-based
Excerpt: as §1, §2

S. epidermidis = test: MICs of solithromycin and comparator drugs, S. epidermidis (30 species); assay type: cell-based
Excerpt: as §1, §2

Corynebacterium spp. = test: MIC, Corynebacterium spp.; assay type: cell-based; details: Corynebacterium; N = 10
Staphylococcus aureus = test: MIC, Staphylococcus aureus; assay type: cell-based; details: N = 201
CA-MRSA = test: MIC, CA-MRSA; assay type: cell-based, Staphylococcus aureus; details: N = 30
[1] = tested on: Haemophilus parainfluenzae; test: MIC, Haemophilus parainfluenzae; assay type: cell-based; details: N = 11
Listeria monocytogenes = test: MIC, Listeria monocytogenes; assay type: cell-based; details: N = 10
Moraxella catarrhalis = test: MIC, Moraxella catarrhalis; assay type: cell-based; details: N = 21
Mycobacterium avium = test: MIC, Mycobacterium avium; assay type: cell-based; details: Mycobacterium avium; N = 30
Mycoplasma hominis = test: MIC, Mycoplasma hominis; assay type: cell-based; details: N = 13
Neisseria gonorrhoeae = test: MIC, Neisseria gonorrhoeae; assay type: cell-based; details: N = 34
Peptostreptococcus spp. = test: MIC, Peptostreptococcus spp.; assay type: cell-based; details: Peptostreptococcus; N = 10
Ureaplasma urealyticum = test: MIC, Ureaplasma urealyticum; assay type: cell-based; details: N = 10
[2] = tested on: Viridans group streptococci; test: MIC, Viridans group streptococci; assay type: cell-based; details: N = 51
TNFα = TNFα production in LPS-stimulated PMA-differentiated U937 cells (ELISA); assay type: cell-based, human; details: concentration not given
Protocol: (§3) EXAMPLE. […] Cells. The human monocytic cell line U937 was obtained from the American Type Culture Collection (ATCC, Rockville, Md.). PBMCs from COPD patients were obtained from Brompton hospital and separated by AccuSPIN (Sigma-Aldrich). […] U937 cells were differentiated into adherent macrophage-like morphology by exposure to PMA (50 ng/ml) for 48 h in complete growth medium. Cell viability was assessed microscopically by trypan blue staining. Cell toxicity was determined by MTT assay as needed. This study was approved by the ethics committee of the Royal Brompton Hospitals, and all subjects gave written informed consent. Cytokine ELISA. TNFα and IL-8 concentrations in the supernatant of cell cultures were determined by sandwich ELISA according to the manufacturer's instructions (R&D Systems Europe, Abingdon, UK). Statistical analysis. The results were expressed as the mean±SEM. Comparisons of data in two groups were performed using the Student's t test or the Wilcoxon signed rank test. Multiple comparisons were made by one-way ANOVA with post hoc test (Dunnett's) as appropriate. The difference was considered significant at p<0.05. […] Anti-inflammatory effects of solithromycin in U937 cells.

CXCL8 = CXCL8 (IL-8) production in LPS-stimulated PMA-differentiated U937 cells (ELISA); assay type: cell-based, human; details: concentration not given
Protocol: as §3

MMP9 = MMP9 activity in PMA-stimulated U937 cells (gelatin zymography); assay type: cell-based, human
Protocol: EXAMPLE. […] Cells. The human monocytic cell line U937 was obtained from the American Type Culture Collection (ATCC, Rockville, Md.). PBMCs from COPD patients were obtained from Brompton hospital and separated by AccuSPIN (Sigma-Aldrich). […] U937 cells were differentiated into adherent macrophage-like morphology by exposure to PMA (50 ng/ml) for 48 h in complete growth medium. Cell viability was assessed microscopically by trypan blue staining. Cell toxicity was determined by MTT assay as needed. This study was approved by the ethics committee of the Royal Brompton Hospitals, and all subjects gave written informed consent. Zymography. MMP9 enzyme activity was measured by gelatin zymography. […] After electrophoresis, gels were incubated and rinsed with Novex® zymogram renaturing buffer (Invitrogen) for 30 min at room temperature. The gels were then rinsed in Novex® zymogram developing buffer (Invitrogen) for 30 min at room temperature prior to overnight incubation in the developing buffer at 37° C. After incubation, the gels were stained using a Colloidal Blue Staining Kit (Invitrogen) to visualize the zymogen bands. Statistical analysis. The results were expressed as the mean±SEM. Comparisons of data in two groups were performed using the Student's t test or the Wilcoxon signed rank test. Multiple comparisons were made by one-way ANOVA with post hoc test (Dunnett's) as appropriate. The difference was considered significant at p<0.05.

SMILES: CC[C@H]1OC(=O)[C@H](C)[C@@H](O[C@H]2C[C@@](C)(OC)[C@@H](O)[C@H](C)O2)[C@H](C)[C@@H](O[C@@H]2O[C@H](C)C[C@H](N(C)C)[C@H]2O)[C@](C)(O)C[C@@H](C)CN(C)[C@H](C)[C@@H](O)[C@]1(C)O [Azithromycin, azithromycin]
- MIC90 (Streptococcus pneumoniae; N = 150): >16 µg/mL
- MIC90 (Streptococcus pneumoniae; Streptococcus pneumoniae, 150 strains, read-out: MIC90): > 16 µg/mL
- MIC50 (Streptococcus pneumoniae; Streptococcus pneumoniae, N = 150): > 16 µg/mL
- MIC50 (Streptococcus pyogenes): > 16 µg/mL
- MIC90 (Streptococcus pyogenes; 100 strains): > 16 µg/mL
- MIC90 (Streptococcus pyogenes; N = 407 (CEM-101), N = 100 (azithromycin)): > 16 µg/mL
- MIC90 (Haemophilus influenzae; Haemophilus influenzae, 100 strains, read-out: MIC90): 2 µg/mL (≈ 2.67 µM)
- MIC50 (Haemophilus influenzae; Haemophilus influenzae, N = 100): 2 µg/mL (≈ 2.67 µM)
- MIC90 (Haemophilus influenzae; N = 100): 2 µg/mL (≈ 2.67 µM)
- MIC Range (Haemophilus influenzae; N = 100): 0.25 to 4 µg/mL
- MIC50 (Legionella pneumophila; Legionella pneumophila): 1 µg/mL (≈ 1.34 µM)
- MIC90 (Legionella pneumophila; Legionella pneumophila): 2 µg/mL (≈ 2.67 µM)
- MIC90 (Legionella pneumophila; N = 30): 2 µg/mL (≈ 2.67 µM)
- MIC90 (Mycoplasma pneumoniae; Mycoplasma, 38 strains, read-out: MIC90): 0.0005 µg/mL (≈ 0.000668 µM)
- MIC50 (Mycoplasma pneumoniae; Mycoplasma, N = 38): 0.00025 µg/mL (≈ 0.000334 µM)
- MIC90 (Mycoplasma pneumoniae; N = 38): 0.0005 µg/mL (≈ 0.000668 µM)
- MIC50 (P. Acnes): 0.06 µg/mL (≈ 0.0801 µM)
- MIC90 (P. Acnes): 4 µg/mL (≈ 5.34 µM)
- I (intermediate susceptibility) (S. pneumoniae): 3%
- NS (not susceptible) (S. pneumoniae): 23%
- S (susceptible) (S. pneumoniae): 73%
- MIC50 (S. pneumoniae; Streptococcus pneumoniae): 0.06 µg/mL (≈ 0.0801 µM)
- MIC90 (S. pneumoniae; Streptococcus pneumoniae): 8 µg/mL (≈ 10.7 µM)
- I (intermediate susceptibility) (H. influenzae): 0%
- MIC Range (H. influenzae): 1 to 4 µg/mL
- NS (not susceptible) (H. influenzae): 0%
- S (susceptible) (H. influenzae): 100%
- MIC50 (H. influenzae; Haemophilus influenzae): 2 µg/mL (≈ 2.67 µM)
- MIC90 (H. influenzae; Haemophilus influenzae): 2 µg/mL (≈ 2.67 µM)
- I (intermediate susceptibility) (MSSA): 0%
- NS (not susceptible) (MSSA): 39%
- S (susceptible) (MSSA): 61%
- MIC50 (MSSA; Staphylococcus aureus, MSSA): 2 µg/mL (≈ 2.67 µM)
- MIC90 (MSSA; Staphylococcus aureus, MSSA): > 32 µg/mL
- MIC50 (MSRA): > 32 µg/mL
- MIC90 (MSRA): > 32 µg/mL
- I (intermediate susceptibility) (MSRA; 30 species): 0%
- NS (not susceptible) (MSRA; 30 species): 90%
- S (susceptible) (MSRA; 30 species): 10%
- I (intermediate susceptibility) (S. epidermidis): 0%
- NS (not susceptible) (S. epidermidis): 63%
- S (susceptible) (S. epidermidis): 37%
- MIC50 (S. epidermidis; Staphylococcus epidermidis): > 32 µg/mL
- MIC90 (S. epidermidis; Staphylococcus epidermidis): > 32 µg/mL
- MIC50 (Corynebacterium spp.): > 16 µg/mL
- MIC90 (Corynebacterium spp.): > 16 µg/mL
- MIC50 (Staphylococcus aureus): > 16 µg/mL
- MIC90 (Staphylococcus aureus): > 16 µg/mL
- MIC Range (CA-MRSA): >16 µg/mL
- MIC50 (CA-MRSA; Staphylococcus aureus, MRSA): > 16 µg/mL
- MIC90 (CA-MRSA; Staphylococcus aureus, MRSA): > 16 µg/mL
- MIC50 ([1]; Haemophilus parainfluenzae): 1 µg/mL (≈ 1.34 µM)
- MIC90 ([1]; Haemophilus parainfluenzae): 2 µg/mL (≈ 2.67 µM)
- MIC Range [1]: 0.5-2^ μg/mL
- MIC50 (Listeria monocytogenes; Listeria monocytogenes): 0.5 µg/mL (≈ 0.668 µM)
- MIC90 (Listeria monocytogenes; Listeria monocytogenes): 1 µg/mL (≈ 1.34 µM)
- MIC Range (Listeria monocytogenes): 0.5-1^ μg/mL
- MIC50 (Moraxella catarrhalis; Moraxella catarrhalis): 0.03 µg/mL (≈ 0.0401 µM)
- MIC90 (Moraxella catarrhalis; Moraxella catarrhalis): 0.06 µg/mL (≈ 0.0801 µM)
- MIC Range (Moraxella catarrhalis): 0.03 to 0.5 µg/mL
- MIC50 (Mycobacterium avium): 16 µg/mL (≈ 21.4 µM)
- MIC90 (Mycobacterium avium): 16 µg/mL (≈ 21.4 µM)
- MIC Range (Mycoplasma hominis): 0.5-4^ μg/mL
- MIC Range (Neisseria gonorrhoeae): 0.06 to 2 µg/mL
- MIC50 (Neisseria gonorrhoeae; Neisseria gonorrhoeae): 0.25 µg/mL (≈ 0.334 µM)
- MIC90 (Neisseria gonorrhoeae; Neisseria gonorrhoeae): 0.5 µg/mL (≈ 0.668 µM)
- MIC50 (Peptostreptococcus spp.): 8 µg/mL (≈ 10.7 µM)
- MIC90 (Peptostreptococcus spp.): > 64 µg/mL
- MIC Range (Ureaplasma urealyticum): 0.5-4^ μg/mL
- MIC50 (Ureaplasma urealyticum; Ureaplasma urealyticum): 2 µg/mL (≈ 2.67 µM)
- MIC90 (Ureaplasma urealyticum; Ureaplasma urealyticum): 4 µg/mL (≈ 5.34 µM)
- MIC50 [2]: 0.12 µg/mL (≈ 0.16 µM)
- MIC90 [2]: 4 µg/mL (≈ 5.34 µM)
- MIC Range [2]: ≤0.008-16 ^ μg/mL
- effect on TNFα production (TNFα): did not inhibit
- effect on IL-8 production (CXCL8): did not inhibit
- inhibitory effect on MMP9 activity, lower than solithromycin (MMP9): 10 fold
